Experimental data from patent publication US10591497B2, “Immunoassay for synthetic cannabinoids of the adamantyl indazole/indole-3-carboxamide family” (Randox Laboratories Limited, priority 2014, dated 2020).
Values after ≈ are worked out from the molar mass of the structure shown.

System: antibody derived from Immunogen of Example 9
Test: Competitive immunoassay (ELISA), IC50 derivation and cross-reactivity
Format: binding, sheep
Settings: for IC50: Table 2, generated as per AKB48 and Table 1; for IC50 / % CROSS-REACTIVITY: Tracer 1 of Example 10; for % CROSS-REACTIVITY: compared to 100% for AKB48; for binding to the antibodies of the invention: "does not bind" = cross-reactivity of less than 2% vs 100% for AKB48 under Example 12 conditions
Description: All cross-reactivity are measured herein under the experimental conditions of Example 12 and compared to 100% for AKB48.
IgG is extracted from the antisera and immobilised on a 96 well ELISA plate (coated for 2 hours at +37° C. at 10 ug/ml in a Phosphate Buffered Saline pH7.2). Unbound material is removed by washing with Tris Buffered Saline (TBS) containing tween ([…]) over 10 minutes. Standard AKB48 is added at the concentrations quoted in Table 1, followed by detection agent 1 (FIG. 2) at 1/140 k in a dilution buffer. After incubation (60 mins) at +15 to +25° C. to allow a competition reaction to take place, the microtitre plate is washed with TBS containing Tween™ to remove excess reagents. The enzyme substrate […] (125 μl) is added (Kem-en-Tec Cat. No. 4800). After a 20 minute incubation period to allow maximum colour development, the colour reaction is stopped by the addition of sulphuric acid (0.2M, 120 μl). This produces a colour change from blue to yellow, and the absorbances are read at 450 nm. A standard curve is then constructed and the IC50 calculated as the AKB48 concentration which produces 50% inhibition of maximal signal. This process was repeated for synthetic cannabinoid members as stated in Table 2 to assess cross-reactivity.
The cross-reactivity (CR) was calculated using the equation below. All calculations were based upon binding and displacement at the 50% of maximum OD (optical density) binding point. The maximum OD is the signal generated using tracer alone and 50% displacement (inhibition) corresponds to the IC50. […]
The extent of antibody binding to synthetic cannabinoids of various families was assessed (Table 2). For the cross-reactants with IC50 values, standard curves were derived for each analyte (as per AKB48 and Table 1). […] In all cases, the cross-reactivity set out in Table 2 was measured using an antibody derived from the immunogen of Example 9 and Tracer 1 of Example 10.

[1] = standard curve derived for each analyte
[2] = single cross-reactant at 300 ng/ml

| SMILES | % CROSS-REACTIVITY [2] | binding to the antibodies of the invention | other results |
| --- | --- | --- | --- |
| CCCCCn1cc(C(=O)NC23CC4CC(CC(C4)C2)C3)c2ccccc21 [SDB001] |  |  | IC50: 52.00 ng/mL (≈ 0.143 µM); % CROSS-REACTIVITY [1]: 4.07% |
| O=C(c1cccc2ccccc12)c1cn(CCCC(O)CF)c2ccccc12 (stereo not drawn) [AM-2201 N-(4-Hydroxypentyl)] | <1.00% |  |  |
| O=C(O)c1cn(CCCCCF)c2ccccc12 [3-carboxyindole of 5-fluoro PB-22] | <1.00% |  |  |
| O=C(Oc1cccc2cccnc12)c1cn(CC2CCCCC2)c2ccccc12 [BB-22] | <1.00% |  |  |
| CCCCCn1cc(C(=O)c2cccc3ccccc23)c2cc(O)ccc21 [JWH-018 5-Hydroxyindole] | <1.00% |  |  |
| CCCCCn1cc(C(=O)NC23CC4CC(CC(C4)C2)C3)c2ccccc21 [AKB48, N-(1-adamantyl)-1-pentyl-1H-indole-3-carboxamide] |  |  | % B/B0 (AKB48 concentration 0.25 ng/ml): 88%; % B/B0 (AKB48 concentration 0.74 ng/ml): 69%; % B/B0 (AKB48 concentration 2.22 ng/ml): 50%; % B/B0 (AKB48 concentration 6.67 ng/ml): 26%; % B/B0 (AKB48 concentration 20.00 ng/ml): 12%; IC50: 2.08 ng/mL (≈ 0.00571 µM); % CROSS-REACTIVITY [1]: 100.00% |
| O=C(O)CCCCn1cc(C(=O)C23CC4CC(CC(C4)C2)C3)c2ccccc21 [AB001 N-Pentanoic Acid] | <1.00% | do not bind |  |
| O=C(c1cccc2ccccc12)c1cn(CCN2CCOCC2)c2ccccc12 [JWH-200] | <1.00% | do not bind |  |
| CCCCn1cc(C(=O)c2cccc3ccccc23)c2ccccc21 [JWH-073] | <1.00% | do not bind |  |
| CCCCCn1cc(C(=O)Oc2cccc3cccnc23)c2ccccc21 [PB-22] | <1.00% | does not bind |  |
| CC1(C)C(C(=O)c2cn(CCN3CCOCC3)c3ccccc23)C1(C)C [A-7969260] | <1.00% |  |  |
| CCCn1c(C)c(C(=O)c2cccc3ccccc23)c2ccccc21 [JWH-015] | <1.00% |  |  |
| CCCCCn1cc(C(=O)c2cccc3ccccc23)c2ccc(O)cc21 [JWH-018 6-Hydroxyindole] | <1.00% |  |  |
| COc1ccccc1CC(=O)c1cn(CCCCCC(=O)O)c2ccccc12 [JWH-250 N-(5-Carboxypentyl)] | <1.00% | do not bind |  |
| CCCCCn1cc(C(=O)Cc2ccccc2Cl)c2ccccc21 [JWH-203] | <1.00% | does not bind |  |
| CCCCCn1cc(C(=O)C2C(C)(C)C2(C)C)c2ccccc21 [UR-144] | <1.00% | do not bind |  |
| O=C(O)CCCCn1cc(C(=O)NC23CC4CC(CC(C4)C2)C3)c2ccccc21 [SDB-001 N-Pentanoic acid (LK1404)] | <1.00% | do not bind |  |
| CC1(C)C(C(=O)c2cn(CCCCCF)c3ccccc23)C1(C)C [XLR-11] | <1.00% | do not bind |  |
| CCCCCn1cc(C(=O)c2ccc(CC)c3ccccc23)c2ccccc21 [JWH-210] | <1.00% |  |  |
| O=C(O)CCCCn1nc(C(=O)NC23CC4CC(CC(C4)C2)C3)c2ccccc21 [AKB48 N-Pentanoic acid (LK1461)] | <1.00% | do not bind |  |
| O=C(c1c[nH]c2ccccc12)C12CC3CC(CC(C3)C1)C2 [N-Desalkyl AB001] | <1.00% |  |  |
| O=C(c1cccc2ccccc12)c1cn(CCCCCF)c2cc(O)ccc12 [AM-2201 6-Hydroxyindole] | <1.00% |  |  |
| COc1ccccc1CC(=O)c1cn(CCC2CCCCC2)c2ccccc12 [RCS-8] | <1.00% | does not bind |  |
| CCCCn1cc(C(=O)c2cccc3ccccc23)c2c(O)cccc21 [JWH-073 4-Hydroxyindole] | <1.00% |  |  |
| CCCCCn1nc(C(=O)NC23CC4CC(CC(O)(C4)C2)C3)c2ccccc21 [3-OH-AKB48, (3-hydroxy-1-adamantyl) 1-pentylindazole-3-carboxamide] |  |  | IC50: 0.18 ng/mL (≈ 0.000472 µM); % CROSS-REACTIVITY [1]: 1163.53% |
| CCCCCn1c(C)c(C(=O)c2cccc3ccccc23)c2ccccc21 [JWH-007] | <1.00% |  |  |

| SMILES | % CROSS-REACTIVITY [2] | binding to the antibodies of the invention | other results |
| --- | --- | --- | --- |
| N#CCCCCn1cc(C(=O)c2cccc3ccccc23)c2ccccc21 [AM2232] | <1.00% |  |  |
| CCCCCn1cc(C(=O)O)c2ccccc21 [PB-22 3-Carboxyindole metabolite] | <1.00% |  |  |
| O=C(O)CCCCn1cc(C(=O)c2cccc3ccccc23)c2ccccc21 [JWH-018 N-Pentanoic acid] | <1.00% |  |  |
| O=C(O)c1cn(CC2CCCCC2)c2ccccc12 [3-Carboxyindole metabolite of BB-22] | <1.00% |  |  |
| CCCCCn1cc(C(=O)c2cccc3ccccc23)c2ccccc21 [JWH-018] | <1.00% | do not bind |  |
| O=C(NC12CC3CC(CC(C3)C1)C2)c1cn(CCCCCF)c2ccccc12 [STS135] |  |  | IC50: 24.76 ng/mL (≈ 0.0647 µM); % CROSS-REACTIVITY [1]: 8.41% |
| CCCCCn1nc(C(=O)N[C@H](C(N)=O)C(C)C)c2ccccc21 [AB Pinaca] | <1.00% | does not bind |  |
| CN1CCCCC1Cn1cc(C(=O)C23CC4CC(CC(C4)C2)C3)c2ccccc21 (stereo not drawn) [AM-1248] | <1.00% | does not bind |  |
| CC1(C)C(C(=O)c2cn(CC3CCOCC3)c3ccccc23)C1(C)C [A-834735] | <1.00% |  |  |
| O=C(Oc1cccc2cccnc12)c1cn(CCCCCF)c2ccccc12 [5-fluoro PB-22] | <1.00% |  |  |
| CCCCCn1cc(C(=O)c2cccc3ccccc23)c2c(O)cccc21 [JWH-018 4-Hydroxyindole] | <1.00% |  |  |
| CCCCCn1cc(C(=O)c2ccc(OC)cc2)c2ccccc21 [RCS-4] |  | does not bind | IC50: 124.55 ng/mL (≈ 0.387 µM); % CROSS-REACTIVITY [1]: 1.67% |
| CCCCCn1cc(C(=O)NC23CC4CC(CC(O)(C4)C2)C3)c2ccccc21 [3-OH-SDB001] |  |  | IC50: 4.40 ng/mL (≈ 0.0116 µM); % CROSS-REACTIVITY [1]: 47.30% |
| O=C(c1cccc2ccccc12)c1cn(CCCCCF)c2ccccc12 [AM-2201] | <1.00% |  |  |
| COc1ccccc1CC(=O)c1cn(CCCCCO)c2ccccc12 [JWH-250 N-(5-Hydroxypentyl)] | <1.00% | do not bind |  |
| O=C(c1cn(CCCCCO)c2ccccc12)C12CC3CC(CC(C3)C1)C2 [AB001 N-Pentanol] | <1.00% | do not bind |  |
| O=C(c1ccccc1I)c1cn(CCCCCF)c2ccccc12 [AM-694] | <1.00% | does not bind |  |
| O=C(NC12CC3CC(CC(C3)C1)C2)c1nn(CCCCCF)c2ccccc12 [AKB48 N-(5-fluoropentyl)] |  |  | IC50: 2.10 ng/mL (≈ 0.00548 µM); % CROSS-REACTIVITY [1]: 98.90% |
| O=C(c1cccc2ccccc12)c1cn(CCCCCO)c2ccccc12 [JWH-018 N-(5-Hydroxypentyl)] | <1.00% |  |  |
| CC1(C)C(C(=O)c2cn(CCCCC(=O)O)c3ccccc23)C1(C)C [UR-144 N Pentanoic acid] | <1.00% |  |  |
| CCCCCn1cc(C(=O)c2ccc(Cl)c3ccccc23)c2ccccc21 [JWH-398] | <1.00% |  |  |
| CCCCCn1cc(C(=O)c2ccc(OC)c3ccccc23)c2ccccc21 [JWH-081] | <1.00% |  |  |
| CCCCn1cc(C(=O)c2cccc3ccccc23)c2cc(O)ccc21 [JWH-073 5-Hydroxyindole] | <1.00% |  |  |
| C=CCCCn1cc(C(=O)c2cccc3ccccc23)c2ccccc21 [JWH-022] | <1.00% |  |  |
| CCCCCCn1cc(C(=O)c2cccc3ccccc23)c2ccccc21 [JWH-019] | <1.00% |  |  |
